System: 233499-124-R-J3-PDC complex spheroid viability, % test/control
Assay: Anticancer human tumor 233499-124-R-J3-PDC patient-derived colon adenocarcinoma cell line growth inhibition
Conditions: for IC50: curve of first compound; for viability, T/C: stronger effect = lower value
Text: Multicellular complex tumor spheroid response to LSD1 Inhibitor Iadademstat in combination with a variety of drugs and investigational agents in selected tumor cell lines
The current study was undertaken to assess response to LSD1 inhibitors in combination with standard-of-care drugs and investigational agents in solid tumor complex spheroid models as well as in the K-562 leukemia. Complex spheroids include a stromal component modeled by human endothelial cells (HUVEC) and fibroblasts modeled by human mesenchymal stem cells (MSCs). The concentration ranges selected for each drug and investigational agent were based upon clinically achievable concentrations if the clinical Cmax of the agent was known.
Compounds. The drugs and investigational agents used in this study are listed on Table 1. All of the agents used, including staurosporine (NSC755774) and gemcitabine (NSC613327), were obtained from the Developmental Therapeutics Program, NCI. FDA-approved anticancer drugs are available from the NCI at http://dtp.nci.nih.gov/branches/dscb/oncology_drugset_explanation.html. Drugs and investigational agents were >95% pure by proton nuclear magnetic resonance (NMR) and liquid chromatography/mass spectrometry (LC/MS). Stock solutions were prepared at 400x in DMSO, stored at -70 degrees C, and diluted in fresh medium prior to their use. The final concentration of DMSO in cell culture wells never exceeded 0.25% (v/v). The FDA-approved anticancer drug set is available from the Developmental Therapeutics Program at https://dtp.cancer.gov/organization/dscb/obtaining/available_plates.htm. All drugs and investigational agents were tested over a range starting from a high concentration at or near the clinical Cmax and decreasing in half-log increments. If the clinical Cmax for an agent had not been determined, the highest concentration tested was 10 microM.
Cell Lines. The patient-derived cancer cell (PDC) lines: 292921-168-R-J2-PDC, K24384-001-R-PDC, and 521955-158-R2-J5-PDC pancreatic carcinomas, 556581-035-R-J1 ovarian carcinoma, 324938-238-R-J1-PDC, 855422-203-R-J1-PDC and 883617-216-R-J1-PDC urothelial bladder carcinomas, 743489-274-T-PDC renal cell carcinoma, 138582-R-J1 Merkel cell tumor, K60290-347-R-J1 and K57222-313-R-J1-PDC glioblastomas, 653999-131-R-J2-PDC, LG0703-F948-PDC, and 349418-098-R-PDC non-small cell lung carcinomas, 885512-296-R-J2-PDC, 171881-019-R-J1-PDC breast carcinomas and 186277-243-T-J2-PDC and 233499-124-R-J2-PDC colon carcinomas were obtained from the NCI Patient-Derived Models Repository (PDMR, https://pdmr.cancer.gov). The established cell lines NCI/ADR-RES (RRID:CVCL_14520 and OVCAR-5 (RRID:CVCL_1628) ovarian carcinomas, 786-O (RRID:CVCL_1051) and A498 (RRID:CVCL_A498) renal cell carcinoma, NCI-H211 (ATCC, cat. CRL-5824; RRID:CVCL_1529), NCI-H196 (ATCC, cat. CRL-5823, RRID:CVCL_1509), SW 1271 (ATCC, cat. CRL-2177, RRID:CVCL_1716) and NCI-H1876 (ATCC, cat. CRL-5902, RRID:CVCL_1503) small cell lung carcinomas, MDA-MB-231 (RRID:CVCL_0062) and MDA-MB-468 (RRID:CVCL_0419)breast carcinomas (10-12). Pooled donor human umbilical vein endothelial cells (HUVEC, Lonza, cat. CC-2519) and human mesenchymal stem cells (hMSC, Lonza, cat. PT-2501) were purchased from Lonza (Walkersville, MD).
Cell Culture. All cells were maintained in an incubator at 37 degrees C and 5% CO2 with 95% humidity. The PDC lines were cultured according to standard operating procedures established by the NCI PDMR (https://pdmr.cancer.gov). Briefly all PDCs were thawed and cultured in Matrigel-coated flasks prepared with a working solution of 1X Ham's F-12 nutrient mix, without supplementation (Invitrogen, Waltham, MA, cat. 11765054), 100 U/mL penicillin-streptomycin (Invitrogen, cat. 15140122), and 2.5% Matrigel (Corning Inc., Corning, NY, cat. 354248) for the first three passages. […]
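Also: spheroids exposed to agents for one week before readout.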

## CC[C@@]1(O)C(=O)OCc2c1cc1n(c2=O)Cc2cc3c(CN(C)C)c(O)ccc3nc2-1 + NC1CC1c1ccc(-c2cccc(O)c2)cc1
Second compound 0.1 µM
  IC50: > 100 nM
Second compound 0.316 µM
  IC50: > 100 nM
Second compound 1 µM
  IC50: > 100 nM
Second compound 3.16 µM
  IC50: > 100 nM
Second compound 10 µM
  IC50: > 100 nM
Second compound 0.1 µM, first compound 0.000316 µM
  viability, T/C: 109%
Second compound 0.1 µM, first compound 0.001 µM
  viability, T/C: 99%
Second compound 0.1 µM, first compound 0.00316 µM
  viability, T/C: 81.8%
Second compound 0.1 µM, first compound 0.01 µM
  viability, T/C: 52.1%
Second compound 0.1 µM, first compound 0.0316 µM
  viability, T/C: 73.5%
Second compound 0.1 µM, first compound 0.1 µM
  viability, T/C: 115%
Second compound 0.316 µM, first compound 0.000316 µM
  viability, T/C: 96.6%
Second compound 0.316 µM, first compound 0.001 µM
  viability, T/C: 90%
Second compound 0.316 µM, first compound 0.00316 µM
  viability, T/C: 72.3%
Second compound 0.316 µM, first compound 0.01 µM
  viability, T/C: 71.4%
Second compound 0.316 µM, first compound 0.0316 µM
  viability, T/C: 79.5%
Second compound 0.316 µM, first compound 0.1 µM
  viability, T/C: 107%
Second compound 1 µM, first compound 0.000316 µM
  viability, T/C: 86.7%
Second compound 1 µM, first compound 0.001 µM
  viability, T/C: 94%
Second compound 1 µM, first compound 0.00316 µM
  viability, T/C: 62.1%
Second compound 1 µM, first compound 0.01 µM
  viability, T/C: 67.9%
Second compound 1 µM, first compound 0.0316 µM
  viability, T/C: 57.3%
Second compound 1 µM, first compound 0.1 µM
  viability, T/C: 104%
Second compound 3.16 µM, first compound 0.000316 µM
  viability, T/C: 89.3%
Second compound 3.16 µM, first compound 0.001 µM
  viability, T/C: 96.3%
Second compound 3.16 µM, first compound 0.00316 µM
  viability, T/C: 63.6%
Second compound 3.16 µM, first compound 0.01 µM
  viability, T/C: 68.3%
Second compound 3.16 µM, first compound 0.0316 µM
  viability, T/C: 70%
Second compound 3.16 µM, first compound 0.1 µM
  viability, T/C: 94.1%
Second compound 10 µM, first compound 0.000316 µM
  viability, T/C: 77.7%
Second compound 10 µM, first compound 0.001 µM
  viability, T/C: 67.9%
Second compound 10 µM, first compound 0.00316 µM
  viability, T/C: 53.8%
Second compound 10 µM, first compound 0.01 µM
  viability, T/C: 53.6%
Second compound 10 µM, first compound 0.0316 µM
  viability, T/C: 58.7%
Second compound 10 µM, first compound 0.1 µM
  viability, T/C: 93.5%

## Nc1ccn(C2OC(CO)C(O)C2(F)F)c(=O)n1 (stereo not given) + NC1CC1c1ccc(-c2cccc(O)c2)cc1
Second compound 0.1 µM
  IC50: 87.3 nM
Second compound 0.316 µM
  IC50: 73.4 nM
Second compound 1 µM
  IC50: 32.8 nM
Second compound 3.16 µM
  IC50: 55.8 nM
Second compound 10 µM
  IC50: 34.8 nM
Second compound 0.1 µM, first compound 0.000949 µM
  viability, T/C: 111%
Second compound 0.1 µM, first compound 0.003 µM
  viability, T/C: 97.9%
Second compound 0.1 µM, first compound 0.00949 µM
  viability, T/C: 104%
Second compound 0.1 µM, first compound 0.03 µM
  viability, T/C: 72.4%
Second compound 0.1 µM, first compound 0.0949 µM
  viability, T/C: 49.4%
Second compound 0.1 µM, first compound 0.3 µM
  viability, T/C: 45.2%
Second compound 0.316 µM, first compound 0.000949 µM
  viability, T/C: 85.1%
Second compound 0.316 µM, first compound 0.003 µM
  viability, T/C: 96.1%
Second compound 0.316 µM, first compound 0.00949 µM
  viability, T/C: 75.3%
Second compound 0.316 µM, first compound 0.03 µM
  viability, T/C: 69.9%
Second compound 0.316 µM, first compound 0.0949 µM
  viability, T/C: 41%
Second compound 0.316 µM, first compound 0.3 µM
  viability, T/C: 41.7%
Second compound 1 µM, first compound 0.000949 µM
  viability, T/C: 96.1%
Second compound 1 µM, first compound 0.003 µM
  viability, T/C: 84.7%
Second compound 1 µM, first compound 0.00949 µM
  viability, T/C: 78.1%
Second compound 1 µM, first compound 0.03 µM
  viability, T/C: 49.2%
Second compound 1 µM, first compound 0.0949 µM
  viability, T/C: 41.2%
Second compound 1 µM, first compound 0.3 µM
  viability, T/C: 38.7%
Second compound 3.16 µM, first compound 0.000949 µM
  viability, T/C: 92.3%
Second compound 3.16 µM, first compound 0.003 µM
  viability, T/C: 95.6%
Second compound 3.16 µM, first compound 0.00949 µM
  viability, T/C: 72.7%
Second compound 3.16 µM, first compound 0.03 µM
  viability, T/C: 60.1%
Second compound 3.16 µM, first compound 0.0949 µM
  viability, T/C: 39.1%
Second compound 3.16 µM, first compound 0.3 µM
  viability, T/C: 46.2%
Second compound 10 µM, first compound 0.000949 µM
  viability, T/C: 83.5%
Second compound 10 µM, first compound 0.003 µM
  viability, T/C: 69.4%
Second compound 10 µM, first compound 0.00949 µM
  viability, T/C: 74.8%
Second compound 10 µM, first compound 0.03 µM
  viability, T/C: 52.5%
Second compound 10 µM, first compound 0.0949 µM
  viability, T/C: 32.8%
Second compound 10 µM, first compound 0.3 µM
  viability, T/C: 35.1%
